Measured values taken from ChEMBL document CHEMBL1201862, “PubChem BioAssay data set” (2004).
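Five concentrations, 48 hours, 96-well plates. GI50 is the concentration that inhibits growth by half.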 Active and inactive are the calls of the source. Cut-off read from the data, not from the text of the source: active = GI50 up to about 1.1 µM and inactive = higher.

Assays:
Assay in all cases: inhibition of tumour cell growth, NCI panel, 48 h
MOLT-4 = system: MOLT-4
KM-20L2 = system: KM-20L2
786-0 = system: 786-0
KM12 = system: KM12
RPMI-8226 = system: RPMI-8226
SW-620 = system: SW-620
XF498 = system: XF498
LXFL 529 = system: LXFL 529
OVCAR-5 = system: OVCAR-5
RXF 393 = system: RXF 393
HL-60 = system: HL-60
SK-MEL-28 = system: SK-MEL-28
OVCAR-4 = system: OVCAR-4
NCI-H522 = system: NCI-H522
M19-MEL = system: M19-MEL

Measured: GI50

NC1=NC2=C(CCCC2)C(c2cccs2)S1 (stereo not given)
inactive: MOLT-4 36.8 µM | KM-20L2 > 100 µM | 786-0 84.5 µM | KM12 > 100 µM | RPMI-8226 61.7 µM | SW-620 > 100 µM | XF498 > 100 µM | LXFL 529 > 100 µM | OVCAR-5 > 100 µM | RXF 393 38.5 µM | HL-60 8.73 µM | SK-MEL-28 > 100 µM | OVCAR-4 86.5 µM | NCI-H522 27.9 µM | M19-MEL > 100 µM

O=C1c2ccccc2C(=O)N1CCCOCc1cnc(O)nc1O
inactive: MOLT-4 > 100 µM | KM-20L2 > 100 µM | 786-0 > 100 µM | KM12 > 100 µM | RPMI-8226 > 100 µM | SW-620 > 100 µM | XF498 > 100 µM | LXFL 529 > 100 µM | OVCAR-5 > 100 µM | RXF 393 > 100 µM | HL-60 > 100 µM | SK-MEL-28 > 100 µM | OVCAR-4 > 100 µM | NCI-H522 > 100 µM | M19-MEL > 100 µM

NC1=NCCC1(c1ccccc1)c1ccccn1 (stereo not given)
inactive: MOLT-4 > 100 µM | KM-20L2 > 100 µM | 786-0 > 100 µM | KM12 > 100 µM | RPMI-8226 > 100 µM | SW-620 > 100 µM | XF498 > 100 µM | LXFL 529 > 100 µM | OVCAR-5 > 100 µM | RXF 393 > 100 µM | HL-60 > 100 µM | SK-MEL-28 > 100 µM | OVCAR-4 > 100 µM | NCI-H522 > 100 µM | M19-MEL > 100 µM

Cc1cc(NS(=O)(=O)c2ccc(NC(=O)c3cccc4c(Nc5ccc(S(=O)(=O)Nc6cc(C)on6)cc5)c5ccc(Cl)cc5nc34)cc2)no1
inactive: MOLT-4 56 µM | KM-20L2 74.1 µM | 786-0 > 100 µM | KM12 69.2 µM | RPMI-8226 47.1 µM | SW-620 76.7 µM | XF498 56.6 µM | LXFL 529 43.2 µM | OVCAR-5 > 100 µM | RXF 393 29.2 µM | HL-60 35 µM | SK-MEL-28 41 µM | OVCAR-4 49.5 µM | NCI-H522 31.4 µM | M19-MEL 41.9 µM

CC(C)c1cccc(=O)c(O)c1 [HINOKITIOL]
inactive: MOLT-4 3.18 µM | KM-20L2 4.27 µM | 786-0 5.22 µM | KM12 12.4 µM | RPMI-8226 7.93 µM | SW-620 5.9 µM | XF498 4.24 µM | LXFL 529 6.85 µM | OVCAR-5 15.7 µM | RXF 393 25.4 µM | HL-60 2.49 µM | SK-MEL-28 18.9 µM | OVCAR-4 7.23 µM | NCI-H522 3.82 µM | M19-MEL 13.3 µM

CC(C)(C)C1CCC2c3c([nH]c4ncccc34)C3C(=O)N(c4ccccc4)C(=O)C3C2C1 (stereo not given)
inactive: MOLT-4 > 100 µM | KM-20L2 > 100 µM | 786-0 > 100 µM | KM12 > 100 µM | RPMI-8226 > 100 µM | SW-620 > 100 µM | XF498 > 100 µM | LXFL 529 > 100 µM | OVCAR-5 > 100 µM | RXF 393 > 100 µM | HL-60 65.9 µM | SK-MEL-28 > 100 µM | OVCAR-4 > 100 µM | NCI-H522 89.3 µM | M19-MEL > 100 µM

O=c1c(Br)cc2nc3ccccc3sc-2c1Br
inactive: MOLT-4 22.2 µM | KM-20L2 > 100 µM | 786-0 15.4 µM | KM12 > 100 µM | RPMI-8226 18.5 µM | SW-620 68.1 µM | XF498 27.2 µM | LXFL 529 28.1 µM | OVCAR-5 > 100 µM | RXF 393 > 100 µM | HL-60 16.3 µM | SK-MEL-28 > 100 µM | OVCAR-4 24 µM | NCI-H522 15.8 µM | M19-MEL 17.5 µM
